# Data as given in ChEMBL document CHEMBL4507257, “Data for DCP probe ABT-100” (2021).
# Assays:
# [1] = target: Serine/threonine-protein kinase SBK1 (Homo sapiens) (UniProt Q52WX2); conditions: Compound concentration 1000.0 nM
# [2] = tested on: Phosphatidylinositol 4,5-bisphosphate 3-kinase catalytic subunit alpha isoform (Homo sapiens), P42336 [E545A]; conditions: Compound concentration 1000.0 nM
# [3] = target: RAF proto-oncogene serine/threonine-protein kinase (Homo sapiens) (UniProt P04049); conditions: Compound concentration 1000.0 nM
# [4] = target: Serine/threonine-protein kinase ULK3 (Homo sapiens) (UniProt Q6PHR2); conditions: Compound concentration 1000.0 nM
# [5] = target: SRSF protein kinase 2 (Homo sapiens) (UniProt P78362); conditions: Compound concentration 1000.0 nM
# [6] = target: Macrophage colony-stimulating factor 1 receptor (Homo sapiens) (UniProt P07333); conditions: Compound concentration 1000.0 nM
# [7] = target: Serine/threonine-protein kinase 17A (Homo sapiens) (UniProt Q9UEE5); conditions: Compound concentration 1000.0 nM
# [8] = target: Epidermal growth factor receptor (Homo sapiens) (UniProt P00533); conditions: Compound concentration 1000.0 nM
# [9] = target: Tyrosine-protein kinase FRK (Homo sapiens) (UniProt P42685); conditions: Compound concentration 1000.0 nM
# [10] = target: Serine/threonine-protein kinase PAK 6 (Homo sapiens) (UniProt Q9NQU5); conditions: Compound concentration 1000.0 nM
# [11] = target: Protein kinase C theta type (Homo sapiens) (UniProt Q04759); conditions: Compound concentration 1000.0 nM
# [12] = target: Serine/threonine-protein kinase Chk2 (Homo sapiens) (UniProt O96017); conditions: Compound concentration 1000.0 nM
# Serine/threonine-protein kinase Chk2 (Homo sapiens), sequence (O96017 whole entry): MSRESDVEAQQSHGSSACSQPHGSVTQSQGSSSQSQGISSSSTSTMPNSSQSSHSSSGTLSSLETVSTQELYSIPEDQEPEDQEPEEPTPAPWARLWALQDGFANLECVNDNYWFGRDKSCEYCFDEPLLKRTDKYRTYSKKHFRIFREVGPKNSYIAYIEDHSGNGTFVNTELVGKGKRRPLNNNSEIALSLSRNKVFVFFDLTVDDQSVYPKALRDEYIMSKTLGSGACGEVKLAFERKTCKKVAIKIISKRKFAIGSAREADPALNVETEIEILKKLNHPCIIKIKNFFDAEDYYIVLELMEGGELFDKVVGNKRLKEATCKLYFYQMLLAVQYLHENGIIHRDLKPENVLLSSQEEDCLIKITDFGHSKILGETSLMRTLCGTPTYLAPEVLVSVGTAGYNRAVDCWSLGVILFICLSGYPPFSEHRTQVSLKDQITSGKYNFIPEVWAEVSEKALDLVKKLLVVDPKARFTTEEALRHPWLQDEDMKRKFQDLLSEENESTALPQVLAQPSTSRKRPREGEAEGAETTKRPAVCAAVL
# [13] = target: Insulin-like growth factor 1 receptor (Homo sapiens) (UniProt P08069); conditions: Compound concentration 1000.0 nM
# [14] = target: Sigma intracellular receptor 2 (Homo sapiens) (UniProt Q5BJF2); conditions: Compound concentration 10.0 uM
# [15] = target: Mitogen-activated protein kinase kinase kinase 3 (Homo sapiens) (UniProt Q99759); conditions: Compound concentration 1000.0 nM
# [16] = target: Sigma non-opioid intracellular receptor 1 (Homo sapiens, UniProt Q99720); conditions: Compound concentration 10.0 uM
# [17] = target: Sodium-dependent dopamine transporter (Homo sapiens) (UniProt Q01959); conditions: Compound concentration 10.0 uM
# [18] = target: Serine/threonine-protein kinase D2 (Homo sapiens) (UniProt Q9BZL6); conditions: Compound concentration 1000.0 nM
# [19] = target: Focal adhesion kinase 1 (Homo sapiens) (UniProt Q05397); conditions: Compound concentration 1000.0 nM
# Focal adhesion kinase 1 (Homo sapiens), sequence (Q05397 2-1052 limits assumed): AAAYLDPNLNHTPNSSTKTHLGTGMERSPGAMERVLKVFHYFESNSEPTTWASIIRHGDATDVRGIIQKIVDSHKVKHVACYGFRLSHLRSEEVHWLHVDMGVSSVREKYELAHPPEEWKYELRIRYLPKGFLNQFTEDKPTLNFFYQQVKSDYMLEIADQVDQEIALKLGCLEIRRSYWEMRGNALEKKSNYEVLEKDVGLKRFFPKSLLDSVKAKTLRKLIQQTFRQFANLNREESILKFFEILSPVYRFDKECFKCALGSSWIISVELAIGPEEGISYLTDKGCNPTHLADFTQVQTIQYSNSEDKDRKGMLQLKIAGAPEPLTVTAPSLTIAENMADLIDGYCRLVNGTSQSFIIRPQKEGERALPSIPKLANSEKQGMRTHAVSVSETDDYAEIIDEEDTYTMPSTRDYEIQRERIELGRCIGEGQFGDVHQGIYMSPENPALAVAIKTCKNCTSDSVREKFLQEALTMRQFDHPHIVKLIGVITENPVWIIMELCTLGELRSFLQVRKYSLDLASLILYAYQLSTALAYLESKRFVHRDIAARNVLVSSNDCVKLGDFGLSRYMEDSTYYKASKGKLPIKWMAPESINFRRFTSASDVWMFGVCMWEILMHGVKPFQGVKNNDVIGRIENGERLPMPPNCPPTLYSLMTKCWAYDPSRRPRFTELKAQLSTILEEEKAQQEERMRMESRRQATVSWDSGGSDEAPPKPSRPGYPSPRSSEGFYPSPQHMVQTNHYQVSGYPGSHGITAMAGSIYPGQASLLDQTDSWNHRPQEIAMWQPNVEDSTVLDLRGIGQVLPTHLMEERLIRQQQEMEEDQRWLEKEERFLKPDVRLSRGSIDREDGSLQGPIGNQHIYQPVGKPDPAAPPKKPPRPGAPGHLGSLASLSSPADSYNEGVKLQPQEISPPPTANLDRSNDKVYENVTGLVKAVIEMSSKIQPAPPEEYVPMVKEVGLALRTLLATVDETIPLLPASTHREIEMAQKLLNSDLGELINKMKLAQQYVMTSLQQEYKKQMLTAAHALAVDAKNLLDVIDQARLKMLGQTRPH
# [20] = target: Ribosomal protein S6 kinase alpha-4 (Homo sapiens) (UniProt O75676); conditions: Compound concentration 1000.0 nM
# [21] = target: Dual specificity protein kinase CLK2 (Homo sapiens) (UniProt P49760); conditions: Compound concentration 1000.0 nM
# [22] = target: TRAF2 and NCK-interacting protein kinase (Homo sapiens) (UniProt Q9UKE5); conditions: Compound concentration 1000.0 nM
# TRAF2 and NCK-interacting protein kinase (Homo sapiens), sequence (Q9UKE5 whole entry, looked up): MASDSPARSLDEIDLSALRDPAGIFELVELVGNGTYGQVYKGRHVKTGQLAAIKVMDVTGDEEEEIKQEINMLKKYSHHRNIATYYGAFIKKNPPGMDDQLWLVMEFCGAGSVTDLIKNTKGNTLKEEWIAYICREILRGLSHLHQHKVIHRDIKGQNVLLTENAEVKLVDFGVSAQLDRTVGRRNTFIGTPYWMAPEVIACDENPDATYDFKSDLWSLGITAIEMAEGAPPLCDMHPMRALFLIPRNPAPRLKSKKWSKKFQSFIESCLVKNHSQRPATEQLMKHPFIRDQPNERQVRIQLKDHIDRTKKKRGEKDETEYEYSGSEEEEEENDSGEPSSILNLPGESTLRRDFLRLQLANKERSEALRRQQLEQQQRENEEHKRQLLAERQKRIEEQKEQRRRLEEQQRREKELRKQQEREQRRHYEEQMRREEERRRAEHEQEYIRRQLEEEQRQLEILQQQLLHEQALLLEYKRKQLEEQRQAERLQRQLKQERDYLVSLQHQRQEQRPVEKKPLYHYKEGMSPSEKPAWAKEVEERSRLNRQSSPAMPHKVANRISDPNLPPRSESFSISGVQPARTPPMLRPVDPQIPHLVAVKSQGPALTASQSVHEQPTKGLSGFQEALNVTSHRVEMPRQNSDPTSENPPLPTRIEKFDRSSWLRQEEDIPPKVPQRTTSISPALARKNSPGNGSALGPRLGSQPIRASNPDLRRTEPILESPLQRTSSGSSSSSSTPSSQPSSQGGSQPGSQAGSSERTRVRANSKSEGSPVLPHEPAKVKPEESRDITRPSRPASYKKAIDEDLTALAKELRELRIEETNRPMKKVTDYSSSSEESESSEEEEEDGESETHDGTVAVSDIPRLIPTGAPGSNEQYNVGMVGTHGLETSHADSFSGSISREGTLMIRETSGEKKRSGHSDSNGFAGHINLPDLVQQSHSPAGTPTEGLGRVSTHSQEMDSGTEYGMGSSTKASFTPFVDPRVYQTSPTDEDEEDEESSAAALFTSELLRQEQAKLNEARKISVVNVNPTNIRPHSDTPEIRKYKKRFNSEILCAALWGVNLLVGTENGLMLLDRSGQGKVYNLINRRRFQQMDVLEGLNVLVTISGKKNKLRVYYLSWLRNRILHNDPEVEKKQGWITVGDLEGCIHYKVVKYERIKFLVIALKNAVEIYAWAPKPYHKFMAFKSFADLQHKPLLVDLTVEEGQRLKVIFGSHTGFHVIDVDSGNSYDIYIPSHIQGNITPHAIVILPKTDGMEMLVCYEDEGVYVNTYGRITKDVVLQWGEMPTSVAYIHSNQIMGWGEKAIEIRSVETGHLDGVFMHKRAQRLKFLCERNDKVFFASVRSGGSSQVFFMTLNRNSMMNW
# [23] = tested on: Tyrosine-protein kinase ABL1 (Homo sapiens), P00519 [F317I]; conditions: Compound concentration 1000.0 nM
# [24] = target: Phosphatidylinositol 4,5-bisphosphate 3-kinase catalytic subunit beta isoform (Homo sapiens) (UniProt P42338); conditions: Compound concentration 1000.0 nM
# [25] = target: cGMP-dependent protein kinase 1 (Homo sapiens) (UniProt Q13976); conditions: Compound concentration 1000.0 nM
# [26] = target: 5'-AMP-activated protein kinase catalytic subunit alpha-1 (Homo sapiens) (UniProt Q13131); conditions: Compound concentration 1000.0 nM
# [27] = target: Discoidin domain-containing receptor 2 (Homo sapiens) (UniProt Q16832); conditions: Compound concentration 1000.0 nM
# Aurora kinase B = Aurora kinase B (Homo sapiens, UniProt Q96GD4); conditions: Compound concentration 1000.0 nM
# Aurora kinase B, sequence (Q96GD4 whole entry): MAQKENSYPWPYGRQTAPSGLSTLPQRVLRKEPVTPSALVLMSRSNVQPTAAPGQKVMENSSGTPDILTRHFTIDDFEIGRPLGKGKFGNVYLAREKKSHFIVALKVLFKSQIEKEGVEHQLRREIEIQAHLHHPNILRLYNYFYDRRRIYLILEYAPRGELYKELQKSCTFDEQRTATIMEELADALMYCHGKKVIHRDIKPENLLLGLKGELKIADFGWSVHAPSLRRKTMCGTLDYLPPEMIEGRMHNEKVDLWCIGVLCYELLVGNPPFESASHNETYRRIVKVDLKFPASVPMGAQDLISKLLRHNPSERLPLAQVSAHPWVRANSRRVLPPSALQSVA
# [28] = target: Serine/threonine-protein kinase 16 (Homo sapiens) (UniProt O75716); conditions: Compound concentration 1000.0 nM
# Serine/threonine-protein kinase 16 (Homo sapiens), sequence (O75716 whole entry): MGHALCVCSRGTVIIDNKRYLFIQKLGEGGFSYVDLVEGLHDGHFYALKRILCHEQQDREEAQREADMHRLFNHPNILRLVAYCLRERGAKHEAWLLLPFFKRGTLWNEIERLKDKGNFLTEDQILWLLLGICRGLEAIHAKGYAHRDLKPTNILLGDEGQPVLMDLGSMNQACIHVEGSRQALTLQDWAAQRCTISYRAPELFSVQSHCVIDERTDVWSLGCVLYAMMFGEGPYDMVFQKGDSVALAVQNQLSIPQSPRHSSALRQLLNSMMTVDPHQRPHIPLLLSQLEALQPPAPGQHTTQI
# [29] = target: Tyrosine-protein kinase receptor UFO (Homo sapiens) (UniProt P30530); conditions: Compound concentration 1000.0 nM
# Tyrosine-protein kinase receptor UFO (Homo sapiens), sequence (P30530 whole entry): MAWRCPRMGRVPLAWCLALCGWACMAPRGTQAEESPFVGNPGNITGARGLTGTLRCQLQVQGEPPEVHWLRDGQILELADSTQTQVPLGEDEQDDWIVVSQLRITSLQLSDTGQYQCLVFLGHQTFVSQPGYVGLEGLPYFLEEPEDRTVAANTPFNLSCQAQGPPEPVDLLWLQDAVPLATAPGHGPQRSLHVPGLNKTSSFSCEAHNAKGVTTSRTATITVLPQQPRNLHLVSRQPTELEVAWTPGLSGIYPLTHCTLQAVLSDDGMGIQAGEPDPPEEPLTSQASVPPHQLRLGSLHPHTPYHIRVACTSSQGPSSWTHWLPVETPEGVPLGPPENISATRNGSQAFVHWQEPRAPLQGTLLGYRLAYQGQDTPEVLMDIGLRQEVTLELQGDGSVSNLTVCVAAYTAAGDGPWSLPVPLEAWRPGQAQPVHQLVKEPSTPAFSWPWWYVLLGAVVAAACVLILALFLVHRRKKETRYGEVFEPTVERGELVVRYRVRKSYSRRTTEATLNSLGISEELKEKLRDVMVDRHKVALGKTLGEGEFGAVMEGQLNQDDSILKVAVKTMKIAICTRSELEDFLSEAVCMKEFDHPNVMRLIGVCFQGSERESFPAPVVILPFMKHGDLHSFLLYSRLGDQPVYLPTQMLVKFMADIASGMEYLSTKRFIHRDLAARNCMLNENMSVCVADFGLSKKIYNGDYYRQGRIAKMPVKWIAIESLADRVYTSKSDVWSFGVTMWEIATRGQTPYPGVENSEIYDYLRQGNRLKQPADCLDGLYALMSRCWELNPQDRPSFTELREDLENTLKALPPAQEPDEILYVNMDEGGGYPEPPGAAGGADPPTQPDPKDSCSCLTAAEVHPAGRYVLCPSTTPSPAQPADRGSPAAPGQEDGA
# [30] = target: Serine/threonine-protein kinase/endoribonuclease IRE1 (Homo sapiens) (UniProt O75460); conditions: Compound concentration 1000.0 nM
# [31] = target: Receptor-interacting serine/threonine-protein kinase 1 (Homo sapiens) (UniProt Q13546); conditions: Compound concentration 1000.0 nM
# [32] = target: 1-phosphatidylinositol 3-phosphate 5-kinase (Homo sapiens) (UniProt Q9Y2I7); conditions: Compound concentration 1000.0 nM
# [33] = target: Membrane-associated tyrosine- and threonine-specific cdc2-inhibitory kinase (Homo sapiens) (UniProt Q99640); conditions: Compound concentration 1000.0 nM
# Membrane-associated tyrosine- and threonine-specific cdc2-inhibitory kinase (Homo sapiens), sequence (Q99640 whole entry): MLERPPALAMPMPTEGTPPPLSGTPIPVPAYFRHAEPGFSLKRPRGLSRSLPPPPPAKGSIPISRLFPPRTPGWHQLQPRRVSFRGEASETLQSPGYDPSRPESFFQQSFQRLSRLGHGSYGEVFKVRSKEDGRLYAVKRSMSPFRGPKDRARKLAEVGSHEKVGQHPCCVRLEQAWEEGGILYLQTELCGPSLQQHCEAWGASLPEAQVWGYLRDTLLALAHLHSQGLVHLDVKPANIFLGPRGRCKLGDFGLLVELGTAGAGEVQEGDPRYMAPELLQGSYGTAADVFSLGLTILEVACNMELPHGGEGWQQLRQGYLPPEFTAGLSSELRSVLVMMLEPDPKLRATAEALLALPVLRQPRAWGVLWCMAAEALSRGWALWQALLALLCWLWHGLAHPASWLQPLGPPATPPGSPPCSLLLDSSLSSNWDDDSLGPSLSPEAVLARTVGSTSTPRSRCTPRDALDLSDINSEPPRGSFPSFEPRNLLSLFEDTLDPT
# [34] = target: Cyclin-dependent kinase 11B (Homo sapiens) (UniProt P21127); conditions: Compound concentration 1000.0 nM
# [35] = target: Serine/threonine-protein kinase Nek1 (Homo sapiens) (UniProt Q96PY6); conditions: Compound concentration 1000.0 nM
# [36] = target: Ephrin type-A receptor 8 (Homo sapiens) (UniProt P29322); conditions: Compound concentration 1000.0 nM
# [37] = target: Tyrosine-protein kinase TXK (Homo sapiens) (UniProt P42681); conditions: Compound concentration 1000.0 nM
# [38] = target: Casein kinase I isoform alpha-like (Homo sapiens) (UniProt Q8N752); conditions: Compound concentration 1000.0 nM
# [39] = target: Aurora kinase A (Homo sapiens) (UniProt O14965); conditions: Compound concentration 1000.0 nM
Structure (SMILES),residual activity [1],residual activity [2],residual activity [3],residual activity [4],residual activity [5],residual activity [6],residual activity [7],residual activity [8],residual activity [9],residual activity [10],residual activity [11],residual activity [12],residual activity [13],inhibition [14],residual activity [15],inhibition [16],inhibition [17],residual activity [18],residual activity [19],residual activity [20],also measured
Cn1cncc1[C@@](O)(COc1ccc(C#N)cc1-c1ccc(OC(F)(F)F)cc1)c1ccc(C#N)cc1 [A-108],100%,86%,85%,78%,55%,100%,100%,100%,100%,100%,100%,96%,100%,37.8%,81%,92.3%,6.63%,100%,97%,93%,residual activity [21]: 90%; residual activity [22]: 99%; residual activity [23]: 100%; residual activity [24]: 75%; residual activity [25]: 94%; residual activity [26]: 100%; residual activity [27]: 95%; residual activity (Aurora kinase B): 100%; residual activity [28]: 99%; residual activity [29]: 100%; residual activity [30]: 95%; residual activity [31]: 90%; residual activity [32]: 100%; residual activity [33]: 100%; residual activity [34]: 92%; residual activity [35]: 100%; residual activity [36]: 100%; residual activity [37]: 85%; residual activity [38]: 100%; residual activity [39]: 76%
Cn1cncc1[C@](O)(COc1ccc(C#N)cc1-c1ccc(OC(F)(F)F)cc1)c1ccc(C#N)cc1 [ABT-100],100%,100%,100%,88%,100%,93%,100%,80%,100%,98%,79%,100%,92%,40.3%,100%,42.5%,9.99%,84%,77%,76%,residual activity [21]: 87%; residual activity [22]: 81%; residual activity [23]: 98%; residual activity [24]: 96%; residual activity [25]: 91%; residual activity [26]: 99%; residual activity [27]: 100%; residual activity (Aurora kinase B): 100%; residual activity [28]: 99%; residual activity [29]: 100%; residual activity [30]: 100%; residual activity [31]: 79%; residual activity [32]: 100%; residual activity [33]: 100%; residual activity [34]: 100%; residual activity [35]: 80%; residual activity [36]: 72%; residual activity [37]: 87%; residual activity [38]: 74%; residual activity [39]: 95%
